Laboratory results reported in patent US9815841B2, “Compounds” (GLAXOSMITHKLINE INTELLECTUAL PROPERTY DEVELOPMENT LIMITED, priority 2014, dated 2017).

Biological target: T1, purified recombinant 6HIS-Tev-LRRK2 (1326-2527) (Homo sapiens, UniProt Q5S007)
T1 construct: A LRRK2 cDNA encoding residues 1326-2527 was received from Dundee University; made in house; host or cells: Spodoptera frugiperda (Sf9) insect cells, baculovirus (pFB-HTb)
T1 sequence (Q5S007 1326-2527): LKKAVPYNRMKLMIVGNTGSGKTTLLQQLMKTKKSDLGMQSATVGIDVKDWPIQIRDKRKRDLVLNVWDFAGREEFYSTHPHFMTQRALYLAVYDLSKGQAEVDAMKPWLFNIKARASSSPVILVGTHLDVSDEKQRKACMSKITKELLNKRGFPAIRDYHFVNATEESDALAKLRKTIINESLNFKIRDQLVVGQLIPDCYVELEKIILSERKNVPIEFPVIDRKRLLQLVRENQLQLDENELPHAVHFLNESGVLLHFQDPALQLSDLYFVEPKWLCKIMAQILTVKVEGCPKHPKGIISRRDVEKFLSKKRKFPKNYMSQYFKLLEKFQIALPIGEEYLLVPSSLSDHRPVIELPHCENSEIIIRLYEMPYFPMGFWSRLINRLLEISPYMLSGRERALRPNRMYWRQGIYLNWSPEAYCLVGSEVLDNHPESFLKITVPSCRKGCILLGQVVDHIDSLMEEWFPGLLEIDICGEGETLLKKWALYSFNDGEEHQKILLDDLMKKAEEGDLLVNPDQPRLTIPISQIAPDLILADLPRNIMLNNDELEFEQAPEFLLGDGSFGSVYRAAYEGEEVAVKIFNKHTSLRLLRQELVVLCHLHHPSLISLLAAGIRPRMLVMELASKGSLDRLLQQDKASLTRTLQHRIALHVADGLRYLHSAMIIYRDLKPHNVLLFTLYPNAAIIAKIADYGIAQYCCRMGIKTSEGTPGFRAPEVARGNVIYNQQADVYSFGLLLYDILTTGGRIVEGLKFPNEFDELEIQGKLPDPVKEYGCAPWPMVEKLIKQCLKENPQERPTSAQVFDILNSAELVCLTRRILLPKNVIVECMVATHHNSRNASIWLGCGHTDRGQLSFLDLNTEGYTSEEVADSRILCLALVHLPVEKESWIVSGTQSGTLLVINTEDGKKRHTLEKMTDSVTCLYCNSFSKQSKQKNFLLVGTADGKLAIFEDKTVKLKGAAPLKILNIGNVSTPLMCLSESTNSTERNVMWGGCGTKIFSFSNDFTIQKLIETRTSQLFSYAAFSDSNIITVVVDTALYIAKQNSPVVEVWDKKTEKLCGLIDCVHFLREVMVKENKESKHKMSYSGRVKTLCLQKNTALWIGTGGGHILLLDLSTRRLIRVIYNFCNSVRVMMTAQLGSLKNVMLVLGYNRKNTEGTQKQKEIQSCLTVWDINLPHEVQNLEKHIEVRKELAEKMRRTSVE
Experiment: Recombinant LRRK2 enzyme peptide substrate TR-FRET assay
Format: biochemical
Details: 60 nM LRRK2 (1326-2527), 1 uM Biotin-longer LRRKtide, 10 uM ATP; read-out: recombinant LRRK2 enzyme peptide substrate TR-FRET assay (pIC50) (converted)
Protocol: This gene fragment was subcloned into pFB-HTb (Invitrogen) using BamHI and NotI restriction sites. The LRRK2 plasmid was recombined into the baculovirus genome according to the BAC-to-BAC protocol described by Invitrogen. Transfection into Spodoptera frugiperda (Sf9) insect cells was performed using Cellfectin (Invitrogen), according to the manufacturer's protocol to generate P1 and P2 baculovirus stocks.
Sf9 cells were grown in HyClone SFX (Thermo Scientific) growth media at 27° C., 80 rpm in shake flask until of a sufficient volume to inoculate a bioreactor. […] The cells were infected with P2 Baculovirus at a multiplicity of infection (MOI) of 3. The cultivation was continued for a 48 hour expression phase. The infected cells were removed from the growth media by centrifugation at 2500 g using a Sorvall RC 3C Plus centrifuge at 2500 g for 20 minutes. The cell pellet was immediately frozen and subsequently supplied for purification.
A 260 g pellet was allowed to thaw in a water bath at 27° C. with 800 ml lysis buffer/buffer A (50 mm Tris-HCl pH 8.5, 300 mM NaCl, 1 mm DTT, 10% glycerol, 1 ml/L calbiochem complete protease inhibitor cocktail and benzonase (50 ul/800 ml)) before being dounce homogenised on ice using 20 strokes per 100 ml. The suspension was packed in ice and sonicated at 50% amplitude for 3 min 10 sec on/off using a ¾″ probe. The suspension was then centrifuged at 100,000 g for 90 min, at 4° C.
The lysate (700 ml) was decanted from the insoluble pellet and contacted for 3 h at 4 C with 10 ml His bind Ni NTA resin by end over end mixing. The resin was recovered by centrifugation, 3000 g, 5 min at 4 C, and packed in an XK16 column. The column was then washed with 10 column volumes buffer A, 10 column volumes buffer B (buffer A+1M NaCl) and 10 column volumes buffer C (buffer A+20 mM imidazole). The column was then eluted with 15 column volumes buffer D (buffer A+300 mM imidazole) collecting 2 ml fractions. All washes and elution were conducted at 4 ml/min.
Fractions identified by SDS-PAGE as containing protein of interest were pooled and loaded directly onto a 320 ml SEC Superdex 200 pg column that was pre-equilibrated with buffer E (50 mM Tris-HCl pH 8.5, 300 mM NaCl, 10% glycerol, 1 mM DTT). The column was loaded and eluted with 1.2 column volumes buffer E at 2 ml/min collecting 2 ml fractions. Fractions identified by SDS-PAGE as containing protein of interest were tested for activity.
Production of Biotin-Longer LRRKtide
The resulting crude peptide was cleaved from the resin using a 95:2.5:2.5 mix of trifluoroacetic acid:triisopropylsilane:water.
Recombinant LRRK2 Enzyme Peptide Substrate TR-FRET Assay
Assay Protocol • 1. A 10 mM test compound was dissolved in 100% DMSO and serially diluted 1 in 4. 100 nL was then added to a 384 well low volume black plate, excluding columns 6 and 18. 100 nL of DMSO was added to columns 6 and 18 as controls wells. […] Test plates were then incubated for 30 minutes at room temperature. • 3. 3 uL ‘substate solution’ containing 2 uM Biotin-longer LRRKtide peptide substrate and 20 uM ATP was added to all wells of the plate using a multidrop combi dispenser giving a final assay concentration of 1 uM Biotin-longer LRRKtide and 10 uM ATP. Test plates were then incubated for 2 hours at room temperature. (Incubation may vary depending on rate and linearity of reaction with different enzyme batches). • 4. […] Data is analysed using ActivityBase software (IDBS). Dilutions and concentrations of reagents determined on a batch to batch basis

SMILES | IC50 [nM]
CCOc1nc(Nc2ccc(C(=O)N3CC4CC4(CO)C3)cc2OC)nc2[nH]ccc12 (single isomer, unassigned) [Example E46, (4-((4-ethoxy-7H-pyrrolo-[2,3-d]-pyrimidin-2-yl)amino)-3-methoxyphenyl)(1-(hydroxymethyl)-3-azabicyclo-[3.1.0]-hexan-3-yl)methanone] | ≤ 10
CCOc1nc(Nc2ccc(C(=O)N3CCC4(CC3)CC4COC)cc2OC)nc2[nH]ccc12 (single isomer, unassigned) [Example E52, (4-((4-ethoxy-7H-pyrrolo-[2,3-d]-pyrimidin-2-yl)amino)-3-methoxyphenyl)(1-(methoxymethyl)-6-azaspiro-[2.5]-octan-6-yl)methanone] | ≤ 10
CCOc1nc(Nc2ccc(C(=O)N3CC4CC4(COC)C3)cc2OC)nc2[nH]ccc12 (single isomer, unassigned) [Example E64, (4-((4-ethoxy-7H-pyrrolo-[2,3-d]pyrimidin-2-yl)amino)-3-methoxyphenyl)-(1-(methoxymethyl)-3-azabicyclo[3.1.0]hexan-3-yl)methanone] | ≤ 10
CCOc1nc(Nc2cc(F)c(C(=O)N3CCN(C)CC3)cc2OC)nc2[nH]ccc12 [Example E5, (4-((4-ethoxy-7H-pyrrol-[2,3-d]pyrimidin-2-yl)amino)-2-fluoro-5-methoxyphenyl)(4-methylpiperazin-1-yl)-methanone] | ≤ 10
CCOc1nc(Nc2ccc(C(=O)N3CCN(C)CC3)cc2OC(F)F)nc2[nH]ccc12 [Example E7, (3-(difluoromethoxy)-4-((4-ethoxy-7H-pyrrolo-[2,3-d]-pyrimidin-2-yl)amino)phenyl)(4-methylpiperazin-1-yl)-methanone] | ≤ 10
CCOc1nc(Nc2ccc(C(=O)N3CCN(C)CC3)cc2OCC2CC2)nc2[nH]ccc12 [Example E8, (3-(cyclopropylmethoxy)-4-((4-ethoxy-7H-pyrrolo-[2,3-d]-pyrimidin-2-yl)amino)phenyl)(4-methylpiperazin-1-yl)-methanone] | ≤ 10
CCOc1cc(C(=O)N2CCN(C)CC2)ccc1Nc1nc(OCC)c2cc[nH]c2n1 [Example E25, (3-ethoxy-4-((4-ethoxy-7H-pyrrolo-[2,3-d]pyrimidin-2-yl)amino)phenyl)(4-methylpiperazin-1-yl)methanone] | ≤ 10
CCOc1nc(Nc2ccc(C(=O)N3CCN(C)[C@H](C)C3)cc2OC)nc2[nH]ccc12 [Example E29, (R)-(3,4-dimethylpiperazin-1-yl)-(4-((4-ethoxy-7H-pyrrolo-[2,3-d]-pyrimidin-2-yl)amino)-3-methoxyphenyl)methanone] | ≤ 10
CCOc1nc(Nc2ccc(C(=O)N3CCC[C@@H]3COC)cc2OC)nc2[nH]ccc12 [Example E35, (R)-(4-((4-ethoxy-7H-pyrrolo-[2,3-d]pyrimidin-2-yl)amino)-3-methoxyphenyl)(2-(methoxymethyl)pyrrolidin-1-yl)methanone] | ≤ 10
CCOc1nc(Nc2ccc(C(=O)N3CCC(F)CC3)cc2OC)nc2[nH]ccc12 [Example E36, (4-((4-ethoxy-7H-pyrrolo-[2,3-d]pyrimidin-2-yl)amino)-3-methoxyphenyl)(4-fluoropiperidin-1-yl)methanone] | ≤ 10
CCOc1nc(Nc2ccc(C(=O)N3CCN(C)[C@@H](C)C3)cc2OC)nc2[nH]ccc12 [Example E41, (S)-(3,4-dimethylpiperazin-1-yl)(4-((4-ethoxy-7H-pyrrolo-[2,3-d]-pyrimidin-2-yl)amino)-3-methoxyphenyl)methanone] | ≤ 10
CCOc1nc(Nc2ccc(C(=O)N3CCC(COC)CC3)cc2OC)nc2[nH]ccc12 [Example E42, (4-((4-ethoxy-7H-pyrrolo-[2,3-d]-pyrimidin-2-yl)amino)-3-methoxyphenyl)(4-(methoxymethyl)piperidin-1-yl)methanone] | ≤ 10
CCOc1nc(Nc2ccc(C(=O)N3CCCC4(COC4)C3)cc2OC)nc2[nH]ccc12 [Example E44, (4-((4-ethoxy-7H-pyrrolo-[2,3-d]pyrimidin-2-yl)amino)-3-methoxyphenyl)(2-oxa-6-azaspiro-[3.5]nonan-6-yl)methanone] | ≤ 10
CCOc1nc(Nc2ccc(C(=O)N3[C@H](C#N)C[C@@H]4C[C@@H]43)cc2OC)nc2[nH]ccc12 [Example E66, (1 S,3S,5S)-2-(4-((4-ethoxy-7H-pyrrolo-[2,3-d]pyrimidin-2-yl)amino)-3-methoxybenzoyl)-2-azabicyclo-[3.1.0]-hexane-3-carbonitrile] | ≤ 10
